Article PMC7449217, “The FDA-Approved Drug Nelfinavir Inhibits Lytic Cell-Free but Not Cell-Associated Nonlytic Transmission of Human Adenovirus” (Antimicrobial Agents and Chemotherapy, 2020)
Where a name gives a salt, the structure may show the parent alone. Read-outs that look alike come from different tables or passages of the source.

What was measured:
HAdV-C2-dE3B-GFP-dADP = experiment: fluorescence-based plaque-forming assay, HBEC; assay type: cell-based, human adenovirus; details: for TI50 (TC50/IC50): HAdV-C2-dE3B-GFP-dADP in HBEC, 4 dpi, GFP
Method: (§1) Per 96-well plate, 15,000 A549 cells, 10,000 HeLa cells, 30,000 HBECs, 30,000 HCE cells, or 30,000 CMT-93 cells were seeded in 100 μl of the respective supplemented medium and allowed to settle for 1 h at room temperature (RT) prior to cell culture incubation at 37°C with 5% CO2 and 95% humidity. The following day, the medium was replaced with 50 μl of the respective virus stock dilution giving rise to 5 to 50 plaques per 96-well plate. Fifty microliters of nelfinavir to obtain a 0.1 to 50 μM final concentration or the DMSO solvent control was also added, both in supplemented medium. For each experiment, a noninfected, treated control was performed. For uphill plaque assays, the medium volume was increased to 150 μl with identical virus and drug concentrations. For wash-in/washout experiments, the virus was incubated on cells in supplemented medium for 1 h at 37°C, cells were washed with PBS, and a 100-μl drug dilution in supplemented medium was added. All experiments were performed in four technical replicates or as indicated. Cells were incubated under standard cell culture conditions. At the indicated times postinfection, the cells were fixed, and the nuclei were stained for 1 h at RT by the addition of 33 μl 16% (wt/vol) paraformaldehyde (PFA) and 4 μg/ml Hoechst 33342 (Sigma-Aldrich, St. Louis, MO, USA) in PBS. Cells were washed three times with PBS and stored in PBS supplemented with 0.02% N3 for infections with viruses harboring a GFP transgene. For wild-type (wt) viruses, cells were quenched in PBS supplemented with 50 mM NH4Cl, permeabilized using 0.2% (vol/vol) Triton X-100 in PBS, and blocked with 0.5% (wt/vol) bovine serum albumin (BSA) in PBS. Cells were incubated with 381.7 ng/ml mouse anti-HAdV hexon protein antibody (Mab8052; Sigma-Aldrich, St. Louis, MO, USA) and subsequently stained using 2 μg/ml goat anti-mouse-Alexa Fluor 594 (catalog number A21203 or A32742; Thermo Fisher Scientific, Waltham, MA, USA). Plates were imaged on either an IXM-XL or an IXM-C automated high-throughput fluorescence microscope (Molecular Devices, San Jose, CA, USA) using a 4× objective in wide-field mode. Hoechst staining was recorded in the 4′,6-diamidino-2-phenylindole (DAPI) channel, the fluorescein isothiocyanate (FITC)/GFP channel was acquired for viral GFP, and the tetramethyl rhodamine isothiocyanate (TRITC)/Texas Red channel was acquired for hexon immunofluorescence staining.
(§2) The infection phenotype for each well was quantified using Plaque2.0 ([101]). The number of plaques was determined based on the infection signal (viral GFP or hexon immunofluorescence staining). Nuclei stained with Hoechst were segmented by using CellProfiler ([178]). Infected nuclei were classified based on the median infection signal per nucleus in CellProfiler. Data were plotted, and the EC50 (infected and treated cells), the TC50 (noninfected, treated cells), as well as the corresponding standard errors (SE) were determined using curve fitting in GraphPad (version 8.1.2; GraphPad Software, Inc.) using three-parameter inhibitor concentration-versus-response nonlinear regression. The mean TI50 was calculated as the […] ratio of the means. The TI50 SE was calculated by error propagation.

HAdV-B35-pIX-FS2A-GFP = experiment: fluorescence-based plaque-forming assay, HBEC; assay type: cell-based, human adenovirus
Method: as §1, §2

HAdV-C2-dE3B-GFP = experiment: fluorescence-based plaque-forming assay, HBEC; assay type: cell-based, human adenovirus; details: for TI50 (TC50/IC50): HAdV-C2-dE3B-GFP in HBEC, 4 dpi, GFP
Method: as §1, §2

HAdV-B3-pIX-FS2A-GFP = experiment: fluorescence-based plaque-forming assay, HBEC; assay type: cell-based, human adenovirus
Method: as §1, §2

HCE cells = assay type: cell-based; details: human
Method: as §1, §2

HeLa cells = assay type: cell-based; details: human
Method: as §1, §2

L3/p23 cysteine protease = target: T1, L3/p23 cysteine protease (Human adenovirus C serotype 5, UniProt P03253); experiment: Western blot analysis of HAdV protease activity (pVI/VI, pVII/VII in purified HAdV-C5); assay type: cell-based; details: purified HAdV-C5 grown in the presence of nelfinavir
T1 construct: Double-CsCl-purified HAdV particles grown in the presence or absence of nelfinavir; endogenous in cells
Method: HAdV-C5 was amplified in medium containing 0, 1.25, or 3 μM nelfinavir for 4 days. Cells were harvested and disrupted by three freeze-thaw cycles. The cell debris was removed by freon extraction, and mature full HAdV virions were purified by two rounds of CsCl gradient ultracentrifugation ([162]). The protein concentration was determined by a bicinchoninic acid (BCA) assay (Pierce BCA protein assay kit; Thermo Fisher Scientific, Waltham, MA, USA). For long-term storage, virus stocks were supplemented with 10% (vol/vol) glycerol and kept at −80°C.
Double-CsCl-purified HAdV particles grown in the presence or absence of nelfinavir (HAdV-C5^±Nelfinavir stocks) and a size standard (PageRuler plus; Thermo Fisher Scientific, Waltham, MA, USA) were size separated on a 12% acrylamide gel under reducing conditions and transferred to a polyvinylidene difluoride (PVDF) membrane. HAdV proteins were detected using primary antibodies, 1:10,000 R72 rabbit antifiber ([181]), 1:1,000 rabbit anti-pVI/VI ([51]), and 1:1,000 R3 rabbit anti-pVII/VII (Ulf Pettersson, Uppsala University), and visualized using goat anti-rabbit-horseradish peroxidase (HRP) (catalog number 7074; Cell Signaling Technology, Danvers, MA, USA) and the ECL Prime Western blotting detection reagent (GE Healthcare, Pittsburgh, PA, USA). […]

CMT-93 cells = experiment: TC50, number of nuclei in noninfected treated cells; assay type: cell-based, mouse; details: noninfected CMT-93, nuclei, 4 dpi
Method: (§3) Per 96-well plate, 15,000 A549 cells, 10,000 HeLa cells, 30,000 HBECs, 30,000 HCE cells, or 30,000 CMT-93 cells were seeded in 100 μl of the respective supplemented medium and allowed to settle for 1 h at room temperature (RT) prior to cell culture incubation at 37°C with 5% CO2 and 95% humidity. The following day, the medium was replaced with 50 μl of the respective virus stock dilution giving rise to 5 to 50 plaques per 96-well plate. Fifty microliters of nelfinavir to obtain a 0.1 to 50 μM final concentration or the DMSO solvent control was also added, both in supplemented medium. For each experiment, a noninfected, treated control was performed. […] Plates were imaged on either an IXM-XL or an IXM-C automated high-throughput fluorescence microscope (Molecular Devices, San Jose, CA, USA) using a 4× objective in wide-field mode. Hoechst staining was recorded in the 4′,6-diamidino-2-phenylindole (DAPI) channel, the fluorescein isothiocyanate (FITC)/GFP channel was acquired for viral GFP, and the tetramethyl rhodamine isothiocyanate (TRITC)/Texas Red channel was acquired for hexon immunofluorescence staining.
(§4) The infection phenotype for each well was quantified using Plaque2.0 ([101]). The number of plaques was determined based on the infection signal (viral GFP or hexon immunofluorescence staining). […] The mean TI50 was calculated as the EC50/TC50 ratio of the means. […]

HIV aspartyl protease = test system: HIV aspartyl protease; parameters: method as in PMID 9397180, PMID 9725550; details: cited from earlier work
HSV-1-CMV-GFP = experiment: fluorescence-based plaque-forming assay, A549 cells; assay type: cell-based, herpes simplex virus 1
Method: as §3, §4

T1 sequence (P03253 whole entry): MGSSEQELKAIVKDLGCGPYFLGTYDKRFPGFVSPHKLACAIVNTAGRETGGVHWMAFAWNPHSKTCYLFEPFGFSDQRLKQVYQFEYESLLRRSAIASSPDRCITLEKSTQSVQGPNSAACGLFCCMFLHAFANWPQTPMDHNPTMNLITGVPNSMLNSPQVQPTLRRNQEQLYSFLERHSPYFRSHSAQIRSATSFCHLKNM

Cc1c(O)cccc1C(=O)N[C@@H](CSc1ccccc1)[C@H](O)CN1C[C@H]2CCCC[C@H]2C[C@H]1C(=O)NC(C)(C)C [Nelfinavir, Nelfinavir mesylate]
TI50 (TC50/IC50) (HAdV-C2-dE3B-GFP-dADP): 4.56 | TI50 (TC50/IC50) (HAdV-C2-dE3B-GFP-dADP; listed as nelfinavir): 4.6 | EC50 (HAdV-C2-dE3B-GFP-dADP; Human adenovirus sp.): 2.72 µM | TI50 (TC50/IC50) (HAdV-B35-pIX-FS2A-GFP; HAdV-B35-pIX-FS2A-GFP in HBEC, 6 dpi, GFP): 1.91 | EC50 (HAdV-B35-pIX-FS2A-GFP; Human adenovirus sp.): 6.99 µM | TI50 (TC50/IC50) (HAdV-C2-dE3B-GFP): 55.18 | TI50 (TC50/IC50) (HAdV-C2-dE3B-GFP; listed as nelfinavir): 55.2 | EC50 (HAdV-C2-dE3B-GFP; Human adenovirus sp.): 0.53 µM | TI50 (TC50/IC50) (HAdV-B3-pIX-FS2A-GFP; HAdV-B3-pIX-FS2A-GFP in HBEC, 8 dpi, GFP): 1.99 | EC50 (HAdV-B3-pIX-FS2A-GFP; Human adenovirus sp.): 6.41 µM | TC50 (HCE cells; 5 days): 29.73 µM | TC50 (HCE cells; 8 days): 19.59 µM | TC50 (HeLa cells; 4 days): 29.85 µM | TC50 (HeLa cells; 5 days): 41.69 µM | effect on proteolytic maturation of the virus by L3/p23 cysteine protease (L3/p23 cysteine protease): did not affect | TC50 (CMT-93 cells; line MAdV-1-pIX-FS2A-GFP): 21.29 µM | TC50 (CMT-93 cells; line MAdV-3-pIX-FS2A-GFP): 26.07 µM | inhibitory concentration (HIV aspartyl protease): low-nanomolar range | TI50 (TC50/IC50) (HSV-1-CMV-GFP; HSV-1-CMV-GFP in A549, 1 dpi, GFP): 17.25 | EC50 (HSV-1-CMV-GFP; Human alphaherpesvirus 1, A549): 2.87 µM
